In patent US12589087B2, “Enantiomer selective action on neurotransmission” (The Board of Trustees of the Leland Stanford Junior …, priority 2021, dated 2026):
Where two headings read alike, the source gives them in different places.

Assays:
C57Bl/6 mice = assay type: in vivo; conditions: for mortality after single dose: mouse, in vivo; for distance moved in the novel cage: single 100, 300, or 900 mg/kg IP, dose- and time-dependent
Description: Dosing: (R)-2MeGlu (30, 100, 300, or 900 mg/kg), (S)-2MeGlu (30, 100, 300, or 900 mg/kg), rac-2MeGln (30, 100, 300, or 900 mg/kg) and vehicle (PBS) were administered at 10 ml/kg IP dosing volume. Three mice were dosed once with the assigned drug (100, 300, or 900 mg/kg) or vehicle and immediately placed in a new cage for novel cage observation. Subsequently, six mice were dosed once with the assigned drug (30 or 100 mg/kg) or vehicle and tested by SHIRPA, activity chamber, and then hot plate tests.
The mouse was dosed and immediately placed in the center of a clean, Innovive disposable rat cage with bedding (dimensions: 17″L×13.4″W×7.8″H) and allowed to move freely while being tracked automatically. Mice were monitored with Ethovision XT tracking software for the distance moved and average velocity during the 60-minute trial. They were returned to their home cage after the test. A new cage was used for each mouse.
Exploratory behavioral tests were performed exactly as previously described by us using 2-month-old C57Bl/6 male mice, Example 1. First, we assessed safety and tolerability of acute exposure to 4APA enantiomers in 22 mice by novel cage observation at 100, 300, or 900 mg/kg IP compared to vehicle (PBS) IP (n=3 or 4 mice per group without sample calculation, based on our previous study. Next, we evaluated 24 drug naïve mice with a 23-measure battery of neurologic dysfunction in mice (SHIRPA) (Rogers et al., 2001), automated activity chamber assessment, and hot plate latency acutely following 30 or 100 mg/kg IP compared to vehicle IP (n=4 or 5 mice per group). No exclusion criteria were predetermined and no randomization was performed to allocate subjects in the study.

[1] = tested on: mouse cerebral synaptosomes; test: Synaptosomal neurotransmitter uptake assay; assay type: cell-based
Description: To each tube, 5 μL of a test compound solution (final concentration 10 μM) in Buffer KRP or Buffer KRP alone were added. Samples were incubated at 4° C. or 37° C. for 1, 10, or 30 min and then immediately centrifuged and washed twice by resuspension-centrifugation with Buffer S (0.5 mL). Resulting pellets were resuspended in 170 μL of 0.1% aqueous formic acid and mixed with 330 μL of ACN.
96-well plate experiments: 250 μL aliquots of the synaptosome suspension were transferred to two 0.8-mL 96 well plates, one on ice (0° C. samples only) and one in a thermoblock (37° C. samples only), and equilibrated for 10 min. 5 μL of a test compound (0.5 mM; final concentration: 10 μM) in Buffer KRP or Buffer KRP blank were added 10, 20 or 30 min before the incubation termination. “0 min” samples were prepared by placing the test compound solution in a separate pre-chilled V-shape bottom 2-mL 96 well plate; at the end of incubation 200 μL aliquots of all samples were transferred to the 2-mL 96 well plate and centrifuged (2,500 g for 15 min at 4° C.) immediately. The resulting pellets were rinsed with Buffer KRP, followed by centrifugation, twice, then resuspended in 200 μL of 60% ACN containing 2.5 μM Glu-d5 as internal standard and stored at −80° C. until analysis.
(§1) Synaptosome uptake and high potassium-induced release assays were performed as described in Example 1. Uptake assays used 250 μL aliquots of the synaptosome suspension transferred to a pre-chilled 0.8 mL 96 well plate. 5 μL of a test compound solution (0.5 mM; final concentration: 10 μM to compare directly to our previous work was added to each well and incubated at 0° C. or 37° C. After 10, 20 or 30 min, samples were chilled on ice and immediately sedimented (2,500 g for 15 min at 4° C.) and washed with Buffer S (0.5 mL, ×2). Resulting pellets were resuspended in 200 μL of 60% ACN containing 5 μM GABA-d6 and stored at −80° C. until analysis. Potassium-induced release assay used 500 μL aliquots of the synaptosome suspension transferred to pre-chilled microcentrifuge tubes. 2.5 μL of a test compound solution (20 mM; final concentration: 100 μM) in Buffer KRP was added to each tube and incubated for 15 min at 37° C., briefly chilled on ice, and then immediately sedimented (8,000 g for 4 min at 4° C.) and washed with Buffer KRP, followed by centrifugation, twice. The resulting pellets were resuspended in 500 μL of Buffer KRP or Buffer K-KRP and incubated for 5, 10 or 15 min at 37° C., sedimented (8,000 g for 4 min at 4° C.), and washed with Buffer KRP. Resulting pellets were resuspended in 400 μL of 60% ACN containing 2.5 μM GABA-d6 as internal standard and stored at −80° C. until analysis.

Line 61 mice = test: Transgenic α-synuclein mouse model, tapered beam test; assay type: in vivo
Description: Line 61 mice overexpress human α-synuclein under control of the mouse Thy-1 promoter. The transgene is X-linked so females have variable transgene expression; for this reason, we focused on male mice. […] Categorical data from the tapered beam task were unblinded and analyzed by X square test (P<0.005).

[2] = tested on: mouse cerebral synaptosomes; test: Potassium-induced neurotransmitter release assay; assay type: cell-based; conditions: for synaptosome total GABA concentration following preincubation: 100 μM preincubation 15 min 37° C., vehicle 9.5±0.2; for reduction of synaptosome 4APA concentration by K+-induced membrane depolarization: 40 mM K+ vs 5 mM K+, 15 min; for endogenous GABA displaced in synaptosomes: once incorporated into synaptosomes
Description: To each tube, 2.5 μL of a test compound solution (final concentration 100 μM) in Buffer KRP or Buffer KRP alone were added. Samples were incubated for 15 min at 37° C., briefly chilled on ice, and then immediately centrifuged and washed twice with Buffer KRP. The resulting pellets were then resuspended in either Buffer KRP (500 μL) or Buffer K-KRP (500 μL). Samples were immediately centrifuged or incubated for 5, 10 or 15 min at 37° C., then centrifuged and washed with Buffer KRP. Resulting pellets were resuspended in 400 μL of 60% ACN containing 2.5 μM Glu-d5 and 2.5 μM Gln-d5 as internal standards.
as §1

[3] = tested on: mouse hippocampal slice cultures; test: Kainic acid neurodegeneration in hippocampal slice cultures (propidium iodide); assay type: cell-based; conditions: 5 or 50 μM compound
Description: We employed a standard technique of ex vivo experimentation to determine the efficacy of 2MeGlu, 2MeGln, and 4APA to prevent neurodegeneration. Mouse hippocampal slice cultures were prepared and then exposed to one of the three test compounds at either 5 or 50 μM for one hour. Then media was changed to contain either 2 or 5 μM kanic acid (KA) for 24 hr. […] After 24, the amount of neurodegeneration was assayed with propidium iodide staining. Increasing the dose of KA led to greater neurodegeneration at 5 μM than at 2 μM.

human glutaminase GLS1 = molecular target: T1, human glutaminase GLS1 (Homo sapiens, UniProt O94925); test: Catalysis of 2MeGln hydrolysis by GLS1 glutaminase; assay type: biochemical; conditions: human GLS1
T1 construct: purchased Sigma SRP0516
T1 sequence (O94925 55-669): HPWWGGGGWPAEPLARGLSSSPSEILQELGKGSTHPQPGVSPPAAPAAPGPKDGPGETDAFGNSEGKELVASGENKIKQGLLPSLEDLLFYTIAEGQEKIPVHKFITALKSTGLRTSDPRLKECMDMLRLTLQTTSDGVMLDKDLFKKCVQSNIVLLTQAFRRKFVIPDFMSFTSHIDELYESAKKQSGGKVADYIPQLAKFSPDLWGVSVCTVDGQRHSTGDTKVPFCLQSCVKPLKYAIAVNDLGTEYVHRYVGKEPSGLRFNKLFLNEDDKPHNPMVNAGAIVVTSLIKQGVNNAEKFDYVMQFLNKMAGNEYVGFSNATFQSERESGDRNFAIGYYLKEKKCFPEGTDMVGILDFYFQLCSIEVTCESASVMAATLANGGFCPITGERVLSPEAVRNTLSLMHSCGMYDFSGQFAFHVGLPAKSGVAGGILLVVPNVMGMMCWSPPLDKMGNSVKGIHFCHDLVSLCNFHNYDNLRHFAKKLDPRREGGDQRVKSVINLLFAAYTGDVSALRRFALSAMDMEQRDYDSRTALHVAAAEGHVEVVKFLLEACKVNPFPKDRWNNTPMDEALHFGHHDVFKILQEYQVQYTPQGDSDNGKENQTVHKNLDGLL
Description: The procedure was adapted from an existing protocol. To a reaction mixture in a 1.5 mL microcentrifuge tube containing 10 mM rac-2MeGln or L-Gln-^13C2 in 100 mM phosphate pH 7.4 buffer made in 20% atom ^18O water, recombinant GLS1 (final concentration: 5 ng/mL) was added. The tubes were incubated in a preheated thermomixer at 37° C. and periodically shaken at 600 rpm (30 s on, 30 s off). 5 μL aliquots were collected in triplicate every 5 min and immediately diluted with 195 μL of cold 60% ACN containing 10 μM Glu-d5 and Gln-d5 as internal standards in a 96 well plate. After collecting all samples, the plate was shaken at 1000 rpm for 5 min at room temperature, and then stored at −80° C. Before analysis the plate was thawed and 10 μL aliquots of the extracted reaction mixtures were diluted with 190 μL of 90% acetonitrile.
The quantification of the newly formed 2MeGlu in the presence of the preexisting trace amounts was performed in the following way. Peak area ratio of Glu-^13C2 to Glu-^13C2^18O was calculated in all samples containing Glu-^13C2. The mean ratio value was then applied to calculate the hypothetical peak area of the newly formed 2MeGlu based on the directly measured 2MeGlu-^18O peak area. The ratio of the newly formed 2MeGlu peak area and the total 2MeGlu peak area was applied to calculate the concentration of the newly formed 2MeGlu from the total 2MeGlu concentration determined directly using the calibration curve.

SMILES: C[C@@H](N)CCC(=O)O [(R)-4APA, (R)-4-aminopentanoic acid]
- time post injection until not significantly different from vehicle, novel cage (C57Bl/6 mice; 300 mg/kg IP): 13 min
- time post injection until not significantly different from vehicle, novel cage (C57Bl/6 mice; 900 mg/kg IP): 42 min
- mortality after single dose (C57Bl/6 mice): no mouse died
- distance moved in the novel cage (C57Bl/6 mice): significantly decreased
- synaptosome concentration of 4APA ([1]; 10 μM, 30 min at 37° C.): 9.3±0.6 nmol/mg protein
- synaptosome uptake, faster than (S)-4APA ([1]; mouse synaptosomes): 4- to 5 fold
- body weight or deaths (Line 61 mice; 5 or 50 mg/kg/d IP, seven days): no change in body weight or deaths
- motor function, tapered beam (Line 61 mice; 7 days IP, high dose (50 mg/kg/d) S-2MeGlu, either dose (5 or 50 mg/kg/d) R-4APA): improved motor function similar to WT mice
- α-synuclein accumulation in brain by immunohistochemistry vs vehicle (Line 61 mice; Line 61 mice): no significant change
- synaptosome total GABA concentration following preincubation [2]: 3.8±0.5 nmol/mg protein
- reduction of synaptosome 4APA concentration by K+-induced membrane depolarization [2]: 55.3±6.8%
- endogenous GABA displaced in synaptosomes [2]: about 55%

SMILES: CC(N)CCC(=O)O (racemic) [rac-4APA, (rac)-4-Aminopentanoic acid]
- transport into synaptosomes ([1]; 10 μM substrate, 37° C.): transported into synaptosomes
- synaptosome concentration, % of (R)-4APA ([1]; 10 μM, 30 min at 37° C.): 78.5±3.8%
- neuroprotection [3]: not neuroprotective
- synaptosome total GABA concentration following preincubation [2]: 4.4±0.4 nmol/mg protein
- reduction of synaptosome 4APA concentration by K+-induced membrane depolarization [2]: 62.2±8.6%
- endogenous GABA displaced in synaptosomes [2]: about 55%
- synaptosome Glu concentration ([2]; preincubation with compound): not significantly changed
- potassium-induced release from synaptosomes ([2]; preloaded with 100 μM for 15 min at 37° C., high-potassium depolarization): high potassium concentration-dependent release

SMILES: C[C@H](N)CCC(=O)O [(S)-4APA, (S)-4-aminopentanoic acid]
- mortality after single dose (C57Bl/6 mice): no mouse died
- distance moved in the novel cage (C57Bl/6 mice): significantly decreased
- synaptosome concentration, % of (R)-4APA ([1]; 10 μM, 30 min at 37° C.): 22.8±0.8%
- synaptosome total GABA concentration following preincubation [2]: 6.0±0.6 nmol/mg protein
- reduction of synaptosome 4APA concentration by K+-induced membrane depolarization [2]: did not significantly reduce
- endogenous GABA displaced in synaptosomes [2]: approximately 30%

SMILES: C[C@](N)(CCC(N)=O)C(=O)O [(S)-2MeGln, (S)-2-methylglutamine]
- substrate of GLS1 (hydrolysis to 2MeGlu) (human glutaminase GLS1): substrates
